This is an account of results in ChEMBL document CHEMBL3734735, “The effect of N-methylation on transition state mimetic inhibitors of the Plasmodium protease, plasmepsin V” (Medchemcomm, 2015).

Series [1] can be described thus: Stability in phosphate buffer at 5000 ng/ml at 37 degC at pH 7.4 measured over 24 hrs by LC-MS analysis in presence of porcine pancreatin. Type of series: physicochemical. The settings on record: pig, pH 7.4, 24 h.
The subject of a further series is HepG2. As to the kind of experiment: Cytotoxicity against human HepG2 cells after 48 hrs by CellTiter Glo assay. Type of series: cell-based. The settings on record: HepG2, 48 h.
Another series relates to Serum. As to the kind of experiment: Metabolic stability in human serum at 5000 ng/ml at 37 degC measured over 55 hrs by LC-MS analysis. The format is ADME.
The target in series [2] is Plasmepsin V (Plasmodium falciparum (isolate 3D7)) (UniProt Q8I6Z5). As to the kind of experiment: Inhibition of plasmepsin 5 in trophozoite stage of transgenic Plasmodium falciparum infected in erythrocytes assessed as suppression of PEXEL processing of GFP-fused EMP3 at 20 uM after 5 hrs by Western blot analysis. Type of series: cell-based.
Sequence of Plasmepsin V (Plasmodium falciparum (isolate 3D7)) (Q8I6Z5 whole entry, looked up, the tested form may be a part): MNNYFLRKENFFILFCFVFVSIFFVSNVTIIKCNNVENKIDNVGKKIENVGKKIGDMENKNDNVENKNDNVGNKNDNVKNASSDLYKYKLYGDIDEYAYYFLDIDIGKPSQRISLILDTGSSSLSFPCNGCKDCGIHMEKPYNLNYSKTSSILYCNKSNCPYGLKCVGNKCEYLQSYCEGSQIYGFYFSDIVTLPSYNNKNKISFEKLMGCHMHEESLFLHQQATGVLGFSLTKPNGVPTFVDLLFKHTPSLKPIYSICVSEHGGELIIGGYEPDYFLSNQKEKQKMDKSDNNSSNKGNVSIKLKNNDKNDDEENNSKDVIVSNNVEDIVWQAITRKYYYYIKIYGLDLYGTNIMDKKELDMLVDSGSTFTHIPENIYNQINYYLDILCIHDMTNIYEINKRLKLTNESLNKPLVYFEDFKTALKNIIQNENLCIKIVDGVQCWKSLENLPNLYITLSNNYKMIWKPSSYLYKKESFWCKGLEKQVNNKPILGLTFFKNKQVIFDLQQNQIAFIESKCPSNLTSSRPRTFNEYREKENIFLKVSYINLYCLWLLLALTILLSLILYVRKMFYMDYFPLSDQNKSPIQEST
The test system of a further series is Plasmodium falciparum. As to the kind of experiment: Antiparasitic activity against early ring-stage of Plasmodium falciparum 3D7 infected in human erythrocytes assessed as inhibition of parasite viability after 72 hrs by flow cytometric analysis. The format is functional, organism-based. The settings on record: 3D7, 72 h.
A further series addresses Plasmepsin V (Plasmodium falciparum (isolate 3D7), UniProt Q8I6Z5). As to the kind of experiment: Inhibition of HA-tagged transgenic Plasmodium falciparum plasmepsin 5 using DABCYL-RNKRTLAQKQ-E-EDANS as substrate after 120 mins by fluorescence plate reader analysis.

Calls of active or inactive are those of the source. The calls are words filed in the database; no cut-off is given here. Square brackets hold non-standard residues; d marks the D form. Peptide text beside a SMILES is read from it. * marks the point of attachment. Sta = CC(C)C[C@H](N)[C@@H](O)CC(=O)O; NHPhenethyl = c1ccc(CCN*)cc1; NMeV = CN[C@H](C(=O)O)C(C)C; Cbz = O=C(OCc1ccccc1)*

Sequence of Plasmepsin V (Q8I6Z5 whole entry): as the sequence (Q8I6Z5 whole entry, looked up, the tested form may be a part) above

As to `CC(C)C[C@H](NC(=O)[C@H](C)NC(=O)[C@H](CCCNC(=N)N)NC(=O)OCc1ccccc1)[C@@H](O)CC(=O)N(C)CCc1ccc(Cl)cc1`, the Stability result (in series [1]; in the series on Serum) was “Stable” in each case. Moreover, the EC50 with HepG2 is more than 50 µM; with Plasmodium falciparum it was 20.3 µM. Further, the inhibition result in series [2] was “inactive”. On Plasmepsin V, 5.35 µM corresponded to half-maximal inhibition (IC50).
Consider `CC(C)C[C@H](NC(=O)[C@H](C)NC(=O)[C@H](CCCNC(=N)N)NC(=O)OCc1ccccc1)[C@@H](O)CC(=O)NCCc1ccc(Cl)cc1`, for which the Stability result (in series [1]; with Serum) was “Stable” throughout. In addition, the EC50 with HepG2 was more than 50 µM; in the series on Plasmodium falciparum, 15.3 µM. The inhibition result in series [2] is “Active”. This molecule also gave an IC50 at Plasmepsin V of 0.3 µM.
`CCN(CC)CCCC(C)Nc1ccnc2cc(Cl)ccc12` (centres undefined) [CHLOROQUINE]: in the series on Plasmodium falciparum, the half-maximal effective concentration (EC50) amounted to 0.01 µM.
Consider `CC(C)C[C@H](NC(=O)[C@H](C(C)C)N(C)C(=O)[C@H](CCCNC(=N)N)NC(=O)OCc1ccccc1)[C@@H](O)CC(=O)NCCc1ccccc1` (Cbz-Arg-[NMeV]-[Sta]-NHPhenethyl), for which the inhibition entry in series [2] is “inactive”. In the series with Plasmodium falciparum, the EC50 stood at 5.89 µM. At Plasmepsin V, this molecule returned an IC50 of more than 50 µM.
As for `CC(C)C[C@@H]([C@@H](O)CC(=O)NCCc1ccc(Cl)cc1)N(C)C(=O)[C@H](C)NC(=O)[C@H](CCCNC(=N)N)NC(=O)OCc1ccccc1`, the Stability entry in series [1] is listed as “Unstable”; in the series on Serum, “Stable”. For the same molecule, the EC50 in the series with HepG2 is more than 50 µM; in the series with Plasmodium falciparum it was 29.2 µM. Further, the inhibition entry in series [2] was “inactive”. For the same molecule, on Plasmepsin V, the 50% inhibitory concentration (IC50) amounted to 0.89 µM.
As for `CC(C)C[C@H](NC(=O)[C@H](C)NC(=O)[C@H](CCCNC(=N)N)N(C)C(=O)OCc1ccccc1)[C@@H](O)CC(=O)NCCc1ccc(Cl)cc1`, the Stability entry (in series [1]; in the series on Serum) was “Stable” throughout. In addition, the concentration for a half-maximal effect (EC50) is more than 50 µM in the series with HepG2 and 67.8 µM in the series on Plasmodium falciparum. In series [2], the inhibition result is “inactive”. The molecule also had an IC50 at Plasmepsin V of 15.6 µM.
In the case of `CC(C)C[C@H](NC(=O)[C@@H](NC(=O)[C@H](CCCNC(=N)N)NC(=O)OCc1ccccc1)C(C)C)[C@@H](O)CC(=O)NCCc1ccccc1` (Cbz-Arg-Val-[Sta]-NHPhenethyl), the EC50 in the series with HepG2 was more than 50 µM; in the series on Plasmodium falciparum, 3.97 µM. In series [2], the inhibition result was “Active”. Also, half-maximal inhibition at Plasmepsin V (IC50) required 0.026 µM.
Regarding `CC(C)C[C@H](NC(=O)[C@H](C)N(C)C(=O)[C@H](CCCNC(=N)N)NC(=O)OCc1ccccc1)[C@@H](O)CC(=O)NCCc1ccc(Cl)cc1`, the Stability result (in series [1]; with Serum) was “Stable” in each case. In addition, the 50% effective concentration (EC50) was more than 50 µM in the series on HepG2 and 23.2 µM in the series with Plasmodium falciparum. For the same molecule, the inhibition entry in series [2] is “inactive”. In addition, half-maximal inhibition against Plasmepsin V (IC50) required 48 µM.
On to `COc1cc([C@@H]2c3cc4c(cc3[C@@H](O[C@@H]3O[C@@H]5CO[C@@H](C)O[C@H]5[C@H](O)[C@H]3O)[C@H]3COC(=O)[C@H]23)OCO4)cc(OC)c1O` [ETOPOSIDE], for which, in the series with HepG2, the concentration giving a half-maximal response (EC50) came out at 9.8 µM.
